# Assays:
# [1] = system: B. burgdorferi strain N40; assay: microbe, parasite or virus in culture; format: cell-based, Borrelia burgdorferi; conditions: Borreliella burgdorferi, N40; bioluminescence; stated after the 72 h results, time not given explicitly; read-out: IC50 (loss of B. burgdorferi vitality)
# Experimental: B. burgdorferi N40 strain carrying a firefly luciferase gene (Bbluc), which is a derivative of the N40D10/E9 clone, was used in this study and is labeled as N40 throughout. N40 was cultured at 33 °C in Barbour-Stoenner-Kelly-II (BSK-II) medium supplemented with 6% rabbit serum (BSKII-RS). Bacterial counts were determined under 400× magnification using a hemocytometer and a dark field microscope.
# The luciferase expressing B. burgdorferi N40 strain was grown to a density of ~10^8 spirochetes/mL and divided into two aliquots. One aliquot was incubated at 60 °C for 30 min to kill the spirochetes. […] The culture was mixed with the substrate by shaking in the dark, incubated at 37 °C for 5 min in a Spectramax M2 microplate reader (Molecular Devices, San Jose, CA, USA) and the bioluminescence measured. […]
# Nucleosides and nucleoside analogs were prepared as sterile 1 mM stock solutions in distilled water (MSeA, IADO, FSBA, and dEt-ImmA) or in DMSO (PurTA). […] Photon emission due to luciferase activity was measured at three time points, after: (a) 24 h, (b) 72 h, and (c) 7 days of treatments to observe the effect of inhibitors on B. burgdorferi culture. At the end of each time point, bioluminescence was measured as described above. […]
# Bgp = Bgp (Borreliella burgdorferi, UniProt Q9F952); assay: MTAN inhibition constants (competitive inhibition of MTA hydrolysis); format: biochemical, Borrelia burgdorferi; conditions: MTA 100 µM, inhibitor 0 to 100 µM, read-out: Ki (inhibition constant)
# Experimental: The inhibited velocity (Vo’) and uninhibited velocity (Vo) values were determined, and the ratio of Vo’/Vo plotted as a function of inhibitor concentration. Ki values were calculated from these plots by fitting the data to the equation for competitive inhibition using GraphPad Prism:(2) Vo^′/Vo=Km+[S]/Km+[S]+(Km[I]/Ki)
# B. burgdorferi N40 = assay: Subculture without inhibitor after 7 days of treatment: bacteriostatic versus bactericidal; format: cell-based, Borrelia burgdorferi
# Experimental: After 7 days of treatment, a 5 µL aliquot from each treatment tube (and untreated control) was added to 1 mL of BSKII-RS medium to allow any remaining viable spirochetes in the sample to grow. After incubation for 7–21 days at 33 °C, the survival of the spirochetes was determined using dark-field microscopy to observe motility and by employing bioluminescence measurements to assess vitality of the recovered culture.
# To further differentiate between bacteriostatic versus bactericidal activities of MTAN inhibitors, we subcultured drug treated spirochetes in the absence of inhibitors to recover any live B. burgdorferi remaining after seven days of inhibitor treatment (summarized in Table 4). If non-motile spirochetes from treated cultures were able to grow back, the inhibitor was determined to have a bacteriostatic effect at the selected concentration. […] Spirochete survival was determined by both dark-field microscopy and bioluminescence measurements. Microscopic examination allowed assessment of motility of the spirochetes whereas bioluminescence assays assessed recovery and viability of B. burgdorferi cells. […] By comparison, a reduction in bioluminescence compared to the untreated control was observed after treatment with dEt-ImmA at a 0.4 µM or greater concentration. […] After seven days of treatment, live spirochetes were only recovered when concentrations of ≤0.4 µM were used for dEt-ImmA and IADO.
# Sequence of Bgp (Q9F952 entry or part of it): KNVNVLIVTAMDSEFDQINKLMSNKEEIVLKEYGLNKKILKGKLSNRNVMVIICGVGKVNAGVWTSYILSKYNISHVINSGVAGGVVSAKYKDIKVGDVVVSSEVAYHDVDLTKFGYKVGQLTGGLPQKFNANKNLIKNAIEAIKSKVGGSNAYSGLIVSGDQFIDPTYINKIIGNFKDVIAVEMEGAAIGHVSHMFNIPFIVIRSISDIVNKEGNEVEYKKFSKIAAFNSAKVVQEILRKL
structure (smiles),measurement,setting,value
"Nc1ncnc2c1ncn2[C@@H]1O[C@H](CI)[C@@H](O)[C@H]1O [IADO, 5′-deoxy-5′-iodoadenosine]",IC50,[1],~1000 nM
same,Ki,Bgp,630 nM
same,recovery of live spirochetes,"B. burgdorferi N40; 2 µM and 10 µM, 21 days of subculture in media lacking MTAN inhibitors",no live spirochetes were recovered
same,Inhibitor Activity,"B. burgdorferi N40; Dose: 2 µM, 10 µM, 7 days of treatment, then subculture",Bactericidal
same,concentrations at which live spirochetes were recovered,B. burgdorferi N40; after seven days of treatment,≤ 0.4 µM
same,concentrations that exert bactericidal activity,"B. burgdorferi N40; after seven days of treatment, bacteriostatic at lower concentrations",≥ 1 µM
